Where two headings read alike, the source gives them in different places. Values belong to the molecule of their own block, whether it stands above or below them.
Molecular target: T1, rat mGluR5 receptor (Rattus norvegicus, UniProt P31424)
T1 construct: expressed in transfected cells; host or cells: HEK-293
Test: [3H]-MPEP displacement binding assay, HEK-293 cell membranes expressing rat mGluR5
Conditions: for Ki: read-out: Median Ki; for IC50: no Ki given, read-out: IC50 (printed in the Median Ki column instead of a Ki)
In short: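 Membranes from HEK-293 cells expressing rat mGluR5 (12-25 μg protein), incubated 60 min at room temperature with 4 nM [3H]-MPEP in 50 mM Tris pH 7.5, then filtered. Nonspecific binding defined with 10 μM MPEP.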

[1] = 1 h, single point, @ 10 μm compound, Table 1A, read-out: PCT INHIB (%) @ 10 μm
[2] = [3H]-MPEP displacement, rat mGluR5
[3] = @ 10 μM compound, Biological Activity, Table 2A, read-out: PCT INHIB (%) @ 10 μM
[4] = [3H]-MPEP displacement, rat mGluR5 membranes
[5] = single point, @ 10 μM compound, Table 3A, read-out: PCT INHIB (%) @ 10 μM

T1 sequence (P31424 21-1203): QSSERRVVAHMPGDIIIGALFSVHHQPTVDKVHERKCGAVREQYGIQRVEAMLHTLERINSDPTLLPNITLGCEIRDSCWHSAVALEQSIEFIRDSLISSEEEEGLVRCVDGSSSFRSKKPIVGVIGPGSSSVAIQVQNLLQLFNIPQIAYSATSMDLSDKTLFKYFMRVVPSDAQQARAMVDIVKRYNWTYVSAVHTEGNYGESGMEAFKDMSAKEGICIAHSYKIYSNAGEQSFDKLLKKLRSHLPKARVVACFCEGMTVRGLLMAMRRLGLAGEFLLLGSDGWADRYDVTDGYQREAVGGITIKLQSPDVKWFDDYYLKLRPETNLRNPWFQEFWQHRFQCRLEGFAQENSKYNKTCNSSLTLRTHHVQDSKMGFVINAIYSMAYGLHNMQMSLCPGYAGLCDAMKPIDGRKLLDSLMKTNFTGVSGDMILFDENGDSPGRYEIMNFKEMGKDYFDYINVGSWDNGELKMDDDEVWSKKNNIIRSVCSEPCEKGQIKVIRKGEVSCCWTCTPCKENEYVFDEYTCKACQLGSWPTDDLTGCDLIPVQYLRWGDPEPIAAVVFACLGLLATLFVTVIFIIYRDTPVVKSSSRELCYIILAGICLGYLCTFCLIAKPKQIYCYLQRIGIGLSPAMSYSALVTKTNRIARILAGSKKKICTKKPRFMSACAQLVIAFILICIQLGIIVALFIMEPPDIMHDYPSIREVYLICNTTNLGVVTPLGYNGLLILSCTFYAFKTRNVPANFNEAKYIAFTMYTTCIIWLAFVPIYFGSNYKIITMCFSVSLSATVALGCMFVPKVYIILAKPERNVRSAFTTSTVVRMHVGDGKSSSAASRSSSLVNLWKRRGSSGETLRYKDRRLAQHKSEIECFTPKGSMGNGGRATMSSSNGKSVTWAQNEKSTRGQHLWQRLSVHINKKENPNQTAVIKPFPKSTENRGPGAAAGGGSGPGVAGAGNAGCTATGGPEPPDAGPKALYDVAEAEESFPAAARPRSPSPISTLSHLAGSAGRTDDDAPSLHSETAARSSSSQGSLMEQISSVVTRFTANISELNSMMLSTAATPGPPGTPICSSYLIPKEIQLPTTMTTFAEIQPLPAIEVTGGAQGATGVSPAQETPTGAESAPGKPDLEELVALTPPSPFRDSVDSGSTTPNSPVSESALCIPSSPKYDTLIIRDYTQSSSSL

- inhibition at 10 µM [1]: 0%
Molecule: COc1ccc(C(=O)N2CCN(c3ccccn3)CC2)cc1C#Cc1cc(C(F)(F)F)cc(C(F)(F)F)c1 [Compound 44, 1-(3-{[3,5-bis(trifluoromethyl)phenyl]ethynyl}-4-methoxybenzoyl)-4-pyridin-2-ylpiperazine]

- inhibition at 10 µM [1]: 91%
- Ki: 0.051 µM
Molecule: COc1cccc(C#Cc2cc(C(=O)N3CCN(c4ccccn4)CC3)ccc2OC)c1 [Compound 17, 1-{4-methoxy-3-[(3-methoxyphenyl)ethynyl]benzoyl}-4-pyridin-2-ylpiperazine]

- inhibition at 10 µM [1]: 76%
- Ki: 0.236 µM
Molecule: COc1ccc(C(=O)N2CCN(c3ccccn3)CC2)cc1C#CC1=CCCCC1 [Compound 15, 1-[3-(cyclohex-1-en-1-ylethynyl)-4-methoxybenzoyl]-4-pyridin-2-ylpiperazine]

- IC50 [2]: > 10 µM
Molecule: COc1ccc(C(=O)N2CCN(S(=O)(=O)Cc3ccccc3)CC2)cc1C#Cc1ccccn1 [Compound 234, 1-(benzylsulfonyl)-4-[4-methoxy-3-(pyridin-2-ylethynyl)benzoyl]piperazine]

- inhibition at 10 µM [1]: 85%
Molecule: Nc1cccc(C#Cc2cccc(C(=O)N3CCN(c4ccccn4)CC3)c2)c1 [Compound 11, 3-({3-[(4-pyridin-2-ylpiperazin-1-yl)carbonyl]phenyl}ethynyl)aniline]

- Ki [2]: 1.01 µM
Molecule: COc1ccc(C(=O)N2CCN(c3cc(C)ccc3C)CC2)cc1C#Cc1ccccn1 [Compound 242, 1-(2,5-dimethylphenyl)-4-[4-methoxy-3-(pyridin-2-ylethynyl)benzoyl]piperazine]

- inhibition at 10 µM [3]: 92%
- Ki (Biological Activity, Table 2A): 0.08 µM
Molecule: COc1nsnc1N1CCN(C(=O)c2cccc(C#Cc3ccccn3)c2)CC1 [Compound 102, 1-(4-methoxy-1,2,5-thiadiazol-3-yl)-4-[3-(pyridin-2-ylethynyl)benzoyl]piperazine]

- inhibition at 10 µM [1]: 95%
- Ki: 0.00863 µM
Molecule: COc1ccc(C(=O)N2CCN(c3cnccn3)CC2)cc1C#Cc1cccc(C)c1 [Compound 53, 2-(4-{4-methoxy-3-[(3-methylphenyl)ethynyl]benzoyl}piperazin-1-yl)pyrazine]

- inhibition at 10 µM [1]: 93%
- Ki: 0.322 µM
Molecule: COc1cccc(C#Cc2cc(C(=O)N3CCN(c4cnccn4)CC3)ccc2C)c1 [Compound 58, 2-(4-{3-[(3-methoxyphenyl)ethynyl]-4-methylbenzoyl}piperazin-1-yl)pyrazine]

- inhibition at 10 µM [3]: 79%
- Ki (Biological Activity, Table 2A): 0.395 µM
Molecule: O=C(c1cccc(C#Cc2ccccn2)c1)N1CCN(c2cnccn2)CC1 [Compound 94, 2-{4-[3-(pyridin-2-ylethynyl)benzoyl]piperazin-1-yl}pyrazine]

- inhibition at 10 µM (single point, @ 10 μM compound, Table 5, read-out: PCT INHIB (%) @ 10 μM): 0%
Molecule: O=S(=O)(c1cccc(C#Cc2ccccc2)c1)N1CCN(c2ccccn2)CC1 [Compound 176, 1-{[3-(phenylethynyl)phenyl]sulfonyl}-4-pyridin-2-ylpiperazine]

- inhibition at 10 µM [1]: 43%
Molecule: COc1ccc(C(=O)N2CCN(c3ccccn3)CC2)cc1C#Cc1cc(C)ccc1C [Compound 22, 1-{3-[(2,5-dimethylphenyl)ethynyl]-4-methoxybenzoyl}-4-pyridin-2-ylpiperazine]

- IC50 [2]: > 10 µM
Molecule: COc1ccc(C(=O)N2CCN(c3ncccn3)CC2)cc1C#Cc1ccc(OCc2ccccc2)cc1 [Compound 358, 2-[4-(3-{[4-(benzyloxy)phenyl]ethynyl}-4-methoxybenzoyl)piperazin-1-yl]pyrimidine]

- Ki [4]: 0.162 µM
Molecule: O=C(c1ccc(C(F)(F)F)c(C#Cc2ccccn2)c1)N1CCN(c2cnccn2)CC1 [Compound 381, 2-(4-{[3-(pyridin-2-ylethynyl)-4-(trifluoromethyl)phenyl]carbonyl}piperazin-1-yl)pyrazine]

- Ki [2]: 0.287 µM
Molecule: COc1ccc(C(=O)N2CCN(c3ncccn3)CC2)cc1C#Cc1ccccc1F [Compound 359, 2-(4-{3-[(2-fluorophenyl)ethynyl]-4-methoxybenzoyl}piperazin-1-yl)pyrimidine]

- Ki [2]: 1.13 µM
Molecule: COc1ccc(C(=O)N2CCN(c3ncccc3Cl)CC2)cc1C#Cc1ccccc1 [Compound 341, 1-(3-chloropyridin-2-yl)-4-[4-methoxy-3-(phenylethynyl)benzoyl]piperazine]

- Ki [2]: 1.07 µM
Molecule: O=C(c1ccc(OC(F)(F)F)c(C#Cc2ccccn2)c1)N1CCN(c2ncccc2Cl)CC1 [Compound 336, 1-(3-chloropyridin-2-yl)-4-[3-(pyridin-2-ylethynyl)-4-(trifluoromethoxy)benzoyl]piperazine]

- inhibition at 10 µM [3]: 52%
- Ki (Biological Activity, Table 2A): 0.651 µM
Molecule: Cc1ccnc(N2CCN(C(=O)c3cncc(C#Cc4ccccc4)c3)CC2)c1 [Compound 133, 1-(4-methylpyridin-2-yl)-4-{[5-(phenylethynyl)pyridin-3-yl]carbonyl}piperazine]

- inhibition at 10 µM [1]: 70%
- Ki: 1.89 µM
Molecule: Cc1ccc(C(=O)N2CCN(c3cnccn3)CC2)cc1C#CC1=CCCCC1 [Compound 56, 2-{4-[3-(cyclohex-1-en-1-ylethynyl)-4-methylbenzoyl]piperazin-1-yl}pyrazine]

- inhibition at 10 µM [3]: 91%
- Ki (Biological Activity, Table 2A): 1.3 µM
Molecule: COc1ccc(C(=O)N2CCN(c3ccncc3)CC2)cc1C#Cc1ccccc1 [Compound 145, 1-[4-methoxy-3-(phenylethynyl)benzoyl]-4-pyridin-4-ylpiperazine]

- inhibition at 10 µM [5]: 11%
Molecule: COc1ccc(C(=O)N2CCN(c3ccccn3)CC2)cc1OCc1cccc(Cl)c1 [Compound 160, 1-{3-[(3-chlorobenzyl)oxy]-4-methoxybenzoyl}-4-pyridin-2-ylpiperazine]

- Ki [2]: 0.674 µM
Molecule: COc1ccc(C(=O)N2CCCN(c3ncccc3C(F)(F)F)CC2)cc1C#Cc1ccccn1 [Compound 209, 1-[4-methoxy-3-(pyridin-2-ylethynyl)benzoyl]-4-[3-(trifluoromethyl)pyridin-2-yl]-1,4-diazepane]

- inhibition at 10 µM [1]: 0%
Molecule: Cc1cc(C)c(C#Cc2cc(C(=O)N3CCN(c4ccccn4)CC3)ccc2C)cc1C [Compound 41, 1-{4-methyl-3-[(2,4,5-trimethylphenyl)ethynyl]benzoyl}-4-pyridin-2-ylpiperazine]

- inhibition at 10 µM [3]: 53%
Molecule: O=C(c1cccc(C#Cc2ccccc2)c1)N1CCN(c2ccncc2)CC1 [Compound 142, 1-[3-(phenylethynyl)benzoyl]-4-pyridin-4-ylpiperazine]

- inhibition at 10 µM [1]: 99%
- Ki: 0.006 µM
Molecule: COc1ccc(C(=O)N2CCN(c3ccccn3)CC2)cc1C#Cc1cccc(C)c1 [Compound 18, 1-{4-methoxy-3-[(3-methylphenyl)ethynyl]benzoyl}-4-pyridin-2-ylpiperazine]

- inhibition at 10 µM [3]: 56%
- Ki (Biological Activity, Table 2A): 3.31 µM
Molecule: O=C(c1cncc(C#Cc2ccccc2)c1)N1CCN(c2ccccn2)CC1 [Compound 87, 1-{[5-(phenylethynyl)pyridin-3-yl]carbonyl}-4-pyridin-2-ylpiperazine]

- Ki [2]: 0.169 µM
Molecule: COc1ccc(C(=O)N2CCN(C(=O)c3ccccc3OC)CC2)cc1C#Cc1ccccn1 [Compound 263, 1-(2-methoxybenzoyl)-4-[4-methoxy-3-(pyridin-2-ylethynyl)benzoyl]piperazine]

- Ki: 0.0217 µM
Molecule: COc1ccc(C(=O)N2CCN(c3cnccn3)CC2)cc1C#Cc1cccc(F)c1 [Compound 61, 2-(4-{3-[(3-fluorophenyl)ethynyl]-4-methoxybenzoyl}piperazin-1-yl)pyrazine]

- inhibition at 10 µM [5]: 0%
Molecule: COc1ccc(C(=O)N2CCN(c3ccccn3)CC2)cc1OCc1cccc(C#N)c1 [Compound 162, 3-({2-methoxy-5-[(4-pyridin-2-ylpiperazin-1-yl)carbonyl]phenoxy}methyl)benzonitrile]

- Ki [2]: 0.674 µM
Molecule: COc1ccc(C(=O)N2CCN(c3ccc(C(F)(F)F)cc3)CC2)cc1C#Cc1ccccn1 [Compound 228, 1-[4-methoxy-3-(pyridin-2-ylethynyl)benzoyl]-4-[4-(trifluoromethyl)phenyl]piperazine]

- inhibition at 10 µM [1]: 86%
- Ki: 0.322 µM
Molecule: COc1cccc(C#Cc2cc(C(=O)N3CCN(c4ccccn4)CC3)ccc2C)c1 [Compound 26, 1-{3-[(3-methoxyphenyl)ethynyl]-4-methylbenzoyl}-4-pyridin-2-ylpiperazine]

- Ki [2]: 0.106 µM
Molecule: COc1cccc(C(=O)N2CCN(C(=O)c3ccc(OC)c(C#Cc4ccccn4)c3)CC2)c1 [Compound 264, 1-(3-methoxybenzoyl)-4-[4-methoxy-3-(pyridin-2-ylethynyl)benzoyl]piperazine]

- Ki [2]: 0.702 µM
Molecule: COc1nc(N2CCN(C(=O)c3ccc(OC(F)(F)F)c(C#Cc4ccccn4)c3)CC2)ncc1Br [Compound 339, 5-bromo-4-methoxy-2-{4-[3-(pyridin-2-ylethynyl)-4-(trifluoromethoxy)benzoyl]piperazin-1-yl}pyrimidine]

- IC50 [2]: > 10 µM
Molecule: COc1ccc(C(=O)N2CCN(c3ncccc3Cl)CC2)cc1C#Cc1ccc(OCc2ccccc2)cc1 [Compound 346, 1-(3-{[4-(benzyloxy)phenyl]ethynyl}-4-methoxybenzoyl)-4-(3-chloropyridin-2-yl)piperazine]

- Ki: 0.131 µM
Molecule: Cc1ccc(C(=O)N2CCN(c3ccccn3)CC2)cc1C#Cc1cccc(F)c1 [Compound 64, 1-{3-[(3-fluorophenyl)ethynyl]-4-methylbenzoyl}-4-pyridin-2-ylpiperazine]

- inhibition at 10 µM [3]: 30%
Molecule: O=C(c1cccc(C#Cc2ccccc2)c1)N1CCN(c2ccc(Cl)cc2)CC1 [Compound 72, 1-(4-chlorophenyl)-4-[3-(phenylethynyl)benzoyl]piperazine]

Molecule: 1-(4-methylpyridin-2-yl)-4-{[3-(pyridin-2-ylethynyl)-4-(trifluoromethyl)phenyl]carbonyl}piperazine [Compound 367]
- Ki [4]: 0.008 µM

- Ki: 0.0212 µM
Molecule: COc1ccc(C(=O)N2CCN(c3cnccn3)CC2)cc1C#Cc1ccccn1 [Compound 66, 2-{4-[4-methoxy-3-(pyridin-2-ylethynyl)benzoyl]piperazin-1-yl}pyrazine]
